Where a chain is given by its changes, count along the chain named. Where two headings read alike, the source gives them in different places.
Columns and labels:
[1] = biological target: T1, mutant MGL (Homo sapiens, UniProt Q99685, L169S/L176S); assay: MGL ThermoFluor assay - mutant; assay type: binding
T1 sequence (Q99685 1-303 L169S/L176S): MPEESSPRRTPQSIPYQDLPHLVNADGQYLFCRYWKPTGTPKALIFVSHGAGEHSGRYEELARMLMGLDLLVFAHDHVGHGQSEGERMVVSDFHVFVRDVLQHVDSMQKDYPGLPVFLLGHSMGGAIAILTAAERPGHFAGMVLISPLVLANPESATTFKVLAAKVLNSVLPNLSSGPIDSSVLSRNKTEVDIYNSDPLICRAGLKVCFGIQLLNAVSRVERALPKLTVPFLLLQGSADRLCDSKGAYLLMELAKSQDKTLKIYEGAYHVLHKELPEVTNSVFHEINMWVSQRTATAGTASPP

[2] = biological target: T2, purified wild type MGL (wt-MGLL 6H-11-313) (Homo sapiens, UniProt Q99685)
T2 sequence (Q99685 1-303): T1 sequence (Q99685 1-303 L169S/L176S) with S169L, S176L

[3] = ThermoFluor, compound concentration measured by qNMR, read-out: MGL mutant ThermoFluor qKd (using qNMR conc.)
[4] = ThermoFluor thermal stability binding assay, read-out: MGL mutant ThermoFluor Kd
[5] = compound concentration measured by qNMR, read-out: MGL mutant ThermoFluor qKd (using qNMR conc.)
[6] = ThermoFluor concentration-response, read-out: MGL mutant ThermoFluor Kd
[7] = ThermoFluor, compound concentration measured by qNMR, read-out: MGL mutant ThermoFluor qKd (μM) (using qNMR conc.)

SMILES: O=C(c1ccc(-c2nc(-c3cccc(C(F)(F)F)c3)cs2)cc1)N1CC(N2CCN(C(=O)c3nccs3)CC2)C1 [Cpd 1332]
- Kd [1, 3]: 0.008 µM
- IC50 [2]: < 5 nM

SMILES: CN(c1ccccc1)S(=O)(=O)c1ccc(C(=O)N2CC(N3CCN(C(=O)c4nccs4)CC3)C2)cc1 [Cpd 946]
- Kd [1, 3]: 1.69 µM
- IC50 [2]: 1000 nM

SMILES: Cc1c(C(=O)N2CC(N3CCN(C(=O)c4cscn4)CC3)C2)sc2cc(F)ccc12 [Cpd 742]
- Kd [1, 4]: 0.02 µM
- IC50 [2]: 306 nM

SMILES: O=C(c1ccc2cnn(Cc3ccc(F)cc3)c2c1)N1CC(N2CCN(C(=O)c3nccs3)CC2)C1 [Cpd 1051, 1-(4-Fluorobenzyl)-6-({3-[4-(1,3-thiazol-2-ylcarbonyl)piperazin-1-yl]azetidin-1-yl}carbonyl)-1H-indazole]
- Kd [1, 5]: 0.175 µM
- IC50 [2]: 128 nM

SMILES: O=C(c1ccc(-n2cnc3ccccc32)cc1)N1CC(N2CCN(C(=O)c3nccs3)CC2)C1 [Cpd 1223]
- Kd [1, 6]: 0.111 µM
- IC50 [2]: 267 nM

SMILES: O=C(c1ccc(-n2cnc3ccccc32)cc1)N1CC(N2CCN(C(=O)c3cscn3)CC2)C1 [Cpd 1293]
- Kd [1, 6]: 1.67 µM
- IC50 [2]: 3170 nM

SMILES: O=C(c1nccs1)N1CCN(C2CN(C(=O)c3cc4ccn(-c5ccc(F)cc5)c4cc3Cl)C2)CC1 [Cpd 1416]
- Kd [1, 5]: 0.015 µM
- IC50 [2]: 39 nM

SMILES: O=C(c1nccs1)N1CCN(C2CN(C(=O)c3cn(-c4cccc(F)c4)c4ccccc34)C2)CC1 [Cpd 1226]
- Kd [1, 7]: 0.193 µM
- IC50 [2]: 282 nM

SMILES: N#Cc1ccc(Cn2ncc3cc(C(=O)N4CC(N5CCN(C(=O)c6nccs6)CC5)C4)ccc32)cc1 [Cpd 1045, 4-{[5-({3-[4-(1,3-Thiazol-2-ylcarbonyl)piperazin-1-yl]azetidin-1-yl]carbonyl)-1H-indazol-1-yl}methyl}benzonitrile]
- Kd [1, 5]: 0.19 µM
- IC50 [2]: 21 nM

SMILES: Cc1c(C(=O)N2CC(N3CCN(C(=O)c4nccs4)CC3)C2)[nH]c2ccc(-c3cccnc3F)cc12 [Cpd 1149, 5-(2-Fluoropyridin-3-yl)-3-methyl-2-({3-[4-(1,3-thiazol-2-ylcarbonyl)piperazin-1-yl]azetidin-1-yl}carbonyl)-1H-indole]
- Kd [1, 7]: 0.004 µM
- IC50 [2]: 35 nM

SMILES: CC(=O)N1CC[C@@H](c2ccccc2C(=O)N2CC(N3CCN(C(=O)c4ccccc4)CC3)C2)C1 [Cpd 1486]
- Kd [1, 4]: > 31.2 µM
- IC50 [2]: > 16700 nM

SMILES: CC(c1ccccc1)n1ncc2cc(C(=O)N3CC(N4CCN(C(=O)c5nccs5)CC4)C3)ccc21 (stereo not shown) [Cpd 1411, 1-(1-Phenylethyl)-5-({3-[4-(1,3-thiazol-2-ylcarbonyl)piperazin-1-yl]azetidin-1-yl}carbonyl)-1H-indazole]
- Kd [1, 5]: 0.001 µM
- IC50 [2]: 12 nM

SMILES: COc1cncc(-c2ccc3cc(C(=O)N4CC(N5CCN(C(=O)c6nccs6)CC5)C4)[nH]c3c2)c1 [Cpd 1196]
- Kd [1, 7]: 0.37 µM
- IC50 [2]: 123 nM

SMILES: Cc1c(C(=O)N2CC(N3CCN(C(=O)c4ccc[nH]4)CC3)C2)nc2ccc(Br)cn12 [Cpd 825]
- Kd [1, 3]: 4.86 µM
- IC50 [2]: 3150 nM

SMILES: O=C(c1cccc(NCc2ccccc2)c1)N1CC(N2CCN(C(=O)c3nccs3)CC2)C1 [Cpd 713]
- Kd [1, 4]: 0.1 µM
- IC50 [2]: 135 nM

SMILES: Cc1nc(-c2ccncc2)sc1C(=O)N1CC(N2CCN(C(=O)c3nccs3)CC2)C1 [Cpd 1272]
- Kd [1, 3]: 0.399 µM
- IC50 [2]: 1610 nM

SMILES: O=C(c1cc[nH]c1)N1CCN(C2CN(C(=O)c3ccc(-c4cccc(C(F)(F)F)c4)cc3)C2)CC1 [Cpd 1324]
- Kd [1, 4]: 0.016 µM
- IC50 [2]: < 5 nM

SMILES: O=C(c1nc2cc(-c3ccc(F)cc3)ccc2[nH]1)N1CC(N2CCN(C(=O)c3nccs3)CC2)C1 [Cpd 1294, 5-(4-Fluorophenyl)-2-({3-[4-(1,3-thiazol-2-ylcarbon-yl)piperazin-1-yl]azetidin-1-yl}carbonyl)-1H-benzimidazole]
- Kd [1, 7]: 4.41 µM
- IC50 [2]: 3230 nM

SMILES: O=C(c1ccc(OCC(F)(F)F)cc1)N1CC(N2CCN(C(=O)c3nccs3)CC2)C1 [Cpd 730]
- Kd [1, 3]: 0.146 µM
- IC50 [2]: 238 nM

SMILES: O=C(c1ccc2c(cnn2-c2cccc(C(F)(F)F)c2)c1)N1CC(N2CCN(C(=O)c3nccs3)CC2)C1 [Cpd 1419]
- Kd [1, 4]: 0.004 µM
- IC50 [2]: < 5 nM

From patent publication US8362000B2, “Azetidinyl diamides as monoacylglycerol lipase inhibitors” (Janssen Pharmaceutica NV, priority 2009, dated 2013)
